Source: patent US7122173B2, “Agent for the treatment of bladder irritative symptoms accompanied by benign prostatic hyperplasia” (Kyowa Hakko Kogyo Co., Ltd., priority 2001, dated 2006)

How the values were obtained:
Assay type in all cases: cell-based, rat
[1] = tested on: delayed rectifier K^+ channel; assay: Voltage clamp, delayed rectifier K+ currents in Fast Blue-labeled capsaicin-sensitive bladder afferent neurons; conditions: Compound 1 1.0 × 10^−6 mol/L
Experimental: (§1) Experiments were performed on adult female Sprague Dawley rats. First and second series of the experiments were performed, respectively, in unidentified DRG neurons and a specific population of DRG neurons innervating the urinary bladder. The population of DRG neurons that innervate the urinary bladder were labeled by retrograde axonal transport of the fluorescent dye, Fast Blue (4% w/v) (Polyloy, Gross Umstadt, Germany), injected into the wall of the bladder in halothane-anesthetized animals 7 days before the dissociation. The dye was injected with a 28 gauge needle at three to six sites on the dorsal surface of the organ (5–6 μL per site, total volume of 20–30 μL). Each injection site was washed with saline to minimize contamination of adjacent organs with the dye.
(§2) Freshly dissociated neurons from DRG were prepared from halothane-anesthetized animals. […]
(§3) Dye-labeled primary afferent neurons that innervate the urinary bladder were identified using an inverted phase-contrast microscope (Nikon, Tokyo, Japan) with fluorescent attachments (UV-1A filter; excitation wavelength, 365 nm). […] All recordings were made with an Axopatch-1D patch-clamp amplifier (Axon Instruments, Foster City, Calif.), and data were acquired and analyzed by PCLAMP software (Axon Instruments).
(§4) In voltage-clamp recordings, outward K^+ currents and inward Na^+ currents were measured. […]

[2] = tested on: delayed rectifier K^+ channel; assay: Voltage clamp, delayed rectifier K+ currents (HP −20 mV) in unidentified DRG neurons; conditions: for K+ current HP: −20 mV (delayed rectifier), relative value (before drug = 1): unidentified DRG neurons
Experimental: as §1
Freshly dissociated neurons from DRG were prepared from halothane-anesthetized animals. L6 and S1 DRG were dissected from animals and then dissociated in a shaking bath for 25 minutes at 35° C. with 5 mL DMEM (Sigma) containing 0.3 mg/mL trypsin (Type 3, Sigma), 1 mg/mL collagenase (Type 1, Sigma), and 0.1 mg/mL deoxyribonuclease (Type 4, Sigma). Trypsin inhibitor (Type 2a, Sigma) was then added thereto to neutralize the activity of trypsin. Individual DRG cell bodies were isolated by trituration and then plated on a poly-L-lysine-coated 35 mm Petri dishes.
Dye-labeled primary afferent neurons that innervate the urinary bladder were identified using an inverted phase-contrast microscope (Nikon, Tokyo, Japan) with fluorescent attachments (UV-1A filter; excitation wavelength, 365 nm). Gigaohm-seal whole-cell recordings were performed at room temperature (20–22° C.) on each labeled neuron in a culture dish that usually contained three to seven labeled cells among a few hundred unlabeled neurons. The internal solution contained (in mmol/L): KCl 140, CaCl2 1, MgCl2 2, EGTA 11, HEPES 10, Mg-ATP 2, and Tris-GTP 0.4 adjusted to pH 7.4 with KOH. Patch electrodes had resistances of 1–4 M Ω when filled with the internal solution. Neurons were superfused at a flow rate of 1.5 mL/minutes with an external solution containing (in mmol/L): NaCl 150, KCl 5, CaCl2 2.5, MgCl2 1, HEPES 10, and D-glucose 10, adjusted to pH 7.4 with NaOH. All recordings were made with an Axopatch-1D patch-clamp amplifier (Axon Instruments, Foster City, Calif.), and data were acquired and analyzed by PCLAMP software (Axon Instruments).
In voltage-clamp recordings, outward K^+ currents and inward Na^+ currents were measured. For the isolation of K^+ currents, the external solution was changed to one containing (in mmol/L): choline-Cl 150, KOH 5, CaCl2 0.03, HEPES 10, Mg(OH)2 3, and D-glucose 10, adjusted to pH 7.4 with HCl.
In first series of experiments using unidentified DRG neurons, outward K^+ currents were evoked by voltage steps to +60 mV, 800 ms long from a holding potentials of −90 mV, this was followed by a 1-second conditioning pre-pulse to −20 mV followed by a second pulse to +60 mV, identical to the first in the sequence. In the second series of experiments using Fast Blue-labeled bladder afferent neurons, slowly-inactivating A-type K^+ currents were isolated by subtraction of outward K^+ currents activated from a holding potential of −40 mV (on the condition of inactivation of the majority of slowly-inactivating A-type K^+ currents) from those activated from a holding potential of −120 mV (on the condition of full activation of slowly-inactivating A-type K^+ currents). A compound was added cumulatively, starting with a lower concentration. Currents were measured at the maximum (peak) and normalized to control (before addition of the compound).
The currents at a holding potential (HP) of −90 mV are results of the measurement of slowly-inactivating A-type K^+ currents, and the currents at an HP value of −20 mV are results of the measurement of delayed rectifier K^+ currents. […]

[3] = tested on: slowly-inactivating A-type K^+ channel; assay: Voltage clamp, slowly-inactivating A-type K+ currents in Fast Blue-labeled capsaicin-sensitive bladder afferent neurons; conditions: Compound 1 1.0 × 10^−6 mol/L
Experimental: as §1, §2, §3, §4

C[C@](O)(C(=O)Nc1cccc2c1C(=O)c1sccc1CS2(=O)=O)C(F)(F)F [Compound 1, (S)-(+)-N-(5,5-dioxido-10-oxo-4,10-dihydrothieno[3,2-c][1]benzothiepin-9-yl)-3,3,3-trifluoro-2-hydroxy-2-methylpropanamide]
Delayed rectifier HP: −40 mV, normalized to control [1]: 1.10 ± 0.01
K+ current HP: −20 mV, relative value (before drug = 1) ([2]; Compound 1 1.0 × 10^−5 mol/L, in the presence of 5 μmol/L verapamil): 1.00 ± 0.02
K+ current HP: −20 mV, relative value (before drug = 1) ([2]; Compound 1 1.0 × 10^−5 mol/L, in the presence of 20 mmol/L tetraethylammonium): 1.01 ± 0.02
K+ current HP: −20 mV (delayed rectifier), relative value (before drug = 1) ([2]; Compound 1 1.0 × 10^−5 mol/L): 0.88 ± 0.07
K+ current HP: −20 mV, relative value (before drug = 1) ([2]; Compound 1 1.0 × 10^−6 mol/L, in the presence of 5 μmol/L verapamil): 1.00 ± 0.01
K+ current HP: −20 mV, relative value (before drug = 1) ([2]; Compound 1 1.0 × 10^−6 mol/L, in the presence of 20 mmol/L tetraethylammonium): 1.00 ± 0.00
K+ current HP: −20 mV (delayed rectifier), relative value (before drug = 1) ([2]; Compound 1 1.0 × 10^−6 mol/L): 1.00 ± 0.02
K+ current HP: −20 mV, relative value (before drug = 1) ([2]; Compound 1 1.0 × 10^−7 mol/L, in the presence of 5 μmol/L verapamil): 1.00 ± 0.01
K+ current HP: −20 mV, relative value (before drug = 1) ([2]; Compound 1 1.0 × 10^−7 mol/L, in the presence of 20 mmol/L tetraethylammonium): 0.99 ± 0.02
K+ current HP: −20 mV (delayed rectifier), relative value (before drug = 1) ([2]; Compound 1 1.0 × 10^−7 mol/L): 1.02 ± 0.01
K+ current HP: −20 mV (delayed rectifier), relative value (before drug = 1) ([2]; Compound 1 1.0 × 10^−8 mol/L): 0.98 ± 0.04
K+ current HP: −20 mV (delayed rectifier), relative value (before drug = 1) ([2]; Compound 1 2.5 × 10^−8 mol/L): 1.01 ± 0.03
K+ current HP: −20 mV, relative value (before drug = 1) ([2]; Compound 1 5.0 × 10^−4 mol/L, in the presence of 5 μmol/L verapamil): 0.83 ± 0.06
K+ current HP: −20 mV, relative value (before drug = 1) ([2]; Compound 1 5.0 × 10^−4 mol/L, in the presence of 20 mmol/L tetraethylammonium): 0.25 ± 0.04
K+ current HP: −20 mV, relative value (before drug = 1) ([2]; Compound 1 5.0 × 10^−4 mol/L, in the presence of 60 mmol/L tetraethylammonium): 0.54 ± 0.02
K+ current HP: −20 mV, relative value (before drug = 1) ([2]; Compound 1 5.0 × 10^−5 mol/L, in the presence of 5 μmol/L verapamil): 0.98 ± 0.01
K+ current HP: −20 mV, relative value (before drug = 1) ([2]; Compound 1 5.0 × 10^−5 mol/L, in the presence of 20 mmol/L tetraethylammonium): 0.84 ± 0.06
K+ current HP: −20 mV, relative value (before drug = 1) ([2]; Compound 1 5.0 × 10^−5 mol/L, in the presence of 60 mmol/L tetraethylammonium): 0.95 ± 0.03
K+ current HP: −20 mV (delayed rectifier), relative value (before drug = 1) ([2]; Compound 1 5.0 × 10^−5 mol/L): 0.81 ± 0.08
K+ current HP: −20 mV, relative value (before drug = 1) ([2]; Compound 1 5.0 × 10^−6 mol/L, in the presence of 5 μmol/L verapamil): 1.01 ± 0.01
K+ current HP: −20 mV, relative value (before drug = 1) ([2]; Compound 1 5.0 × 10^−6 mol/L, in the presence of 20 mmol/L tetraethylammonium): 0.98 ± 0.01
K+ current HP: −20 mV, relative value (before drug = 1) ([2]; Compound 1 5.0 × 10^−6 mol/L, in the presence of 60 mmol/L tetraethylammonium): 0.97 ± 0.02
K+ current HP: −20 mV, relative value (before drug = 1) ([2]; Compound 1 5.0 × 10^−7 mol/L, in the presence of 5 μmol/L verapamil): 1.00 ± 0.01
K+ current HP: −20 mV, relative value (before drug = 1) ([2]; Compound 1 5.0 × 10^−7 mol/L, in the presence of 20 mmol/L tetraethylammonium): 1.01 ± 0.01
K+ current HP: −20 mV, relative value (before drug = 1) ([2]; Compound 1 5.0 × 10^−7 mol/L, in the presence of 60 mmol/L tetraethylammonium): 0.97 ± 0.03
K+ current HP: −20 mV (delayed rectifier), relative value (before drug = 1) ([2]; Compound 1 5.0 × 10^−7 mol/L): 1.01 ± 0.02
K+ current HP: −20 mV, relative value (before drug = 1) ([2]; Compound 1 5.0 × 10^−8 mol/L, in the presence of 5 μmol/L verapamil): 1.00 ± 0.00
K+ current HP: −20 mV, relative value (before drug = 1) ([2]; Compound 1 5.0 × 10^−8 mol/L, in the presence of 20 mmol/L tetraethylammonium): 0.99 ± 0.01
K+ current HP: −20 mV, relative value (before drug = 1) ([2]; Compound 1 5.0 × 10^−8 mol/L, in the presence of 60 mmol/L tetraethylammonium): 1.00 ± 0.01
K+ current HP: −20 mV (delayed rectifier), relative value (before drug = 1) ([2]; Compound 1 5.0 × 10^−8 mol/L): 1.00 ± 0.01
K+ current HP: −20 mV, relative value (before drug = 1) ([2]; Compound 1 5.0 × 10^−9 mol/L, in the presence of 20 mmol/L tetraethylammonium): 0.99 ± 0.00
K+ current HP: −20 mV (delayed rectifier), relative value (before drug = 1) ([2]; Compound 1 5.0 × 10^−9 mol/L): 0.98 ± 0.02
A-type IK (HP: −120 mV) − (HP: −40 mV), normalized to control [3]: 1.26 ± 0.03
